Columns and labels:
Assay type in all cases: in vivo
[1] = test system: blackgrass (Alopecurus myosuroides); assay: Test A postemergence; conditions: Alopecurus myosuroides, post-emergence, 240 h, 125 g ai/ha, postemergence, visual injury rating after approximately 10 d; read-out: Blackgrass plant response rating (0 to 100 scale, 0 no effect, 100 complete control)
Summary of the method: (§1)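 Preemergence directed soil spray on seeded pots, or postemergence application to plants 2–10 cm, one- to two-leaf. Solvent mixture non-phytotoxic, with surfactant. Scored ~10 d later, visually, 0–100 vs untreated.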

[2] = test system: ragweed (common ragweed, Ambrosia elatior); assay: Test A postemergence; conditions: Ambrosia artemisiifolia, post-emergence, 240 h, 125 g ai/ha, postemergence, visual injury rating after approximately 10 d; read-out: Ragweed plant response rating (0 to 100 scale, 0 no effect, 100 complete control)
Summary of the method: as §1

[3] = test system: barnyardgrass (Echinochloa crus-galli); assay: Test A postemergence; conditions: Echinochloa crus-galli, post-emergence, 240 h, 125 g ai/ha, postemergence, visual injury rating after approximately 10 d; read-out: Barnyardgrass plant response rating (0 to 100 scale, 0 no effect, 100 complete control)
Summary of the method: as §1

Kochia (Kochia scoparia) [4] = assay: Test A postemergence; conditions: Bassia scoparia, post-emergence, 240 h, 125 g ai/ha, postemergence, visual injury rating after approximately 10 d; read-out: Kochia plant response rating (0 to 100 scale, 0 no effect, 100 complete control)
Summary of the method: as §1

[5] = test system: wheat (Triticum aestivum); assay: Test A postemergence; conditions: Triticum aestivum, post-emergence, 240 h, 125 g ai/ha, postemergence, visual injury rating after approximately 10 d; read-out: Wheat plant response rating (0 to 100 scale, 0 no effect, 100 complete control)
Summary of the method: as §1

corn (Zea mays) = assay: Test A postemergence; conditions: Zea mays, post-emergence, 240 h, 125 g ai/ha, postemergence, visual injury rating after approximately 10 d; read-out: Corn plant response rating (0 to 100 scale, 0 no effect, 100 complete control)
Summary of the method: as §1

[6] = test system: giant foxtail (Setaria faberii); assay: Test A postemergence; conditions: Setaria faberi, post-emergence, 240 h, 125 g ai/ha, postemergence, visual injury rating after approximately 10 d; read-out: Foxtail, Giant plant response rating (0 to 100 scale, 0 no effect, 100 complete control)
Summary of the method: as §1

[7] = test system: pigweed (Amaranthus retroflexus); assay: Test A postemergence; conditions: Amaranthus retroflexus, post-emergence, 240 h, 125 g ai/ha, postemergence, visual injury rating after approximately 10 d; read-out: Pigweed plant response rating (0 to 100 scale, 0 no effect, 100 complete control)
Summary of the method: as §1

[8] = test system: ryegrass, Italian (Italian ryegrass, Lolium multiflorum); assay: Test A postemergence; conditions: Lolium multiflorum, post-emergence, 240 h, 125 g ai/ha, postemergence, visual injury rating after approximately 10 d; read-out: Ryegrass, Italian plant response rating (0 to 100 scale, 0 no effect, 100 complete control)
Summary of the method: as §1

[9] = test system: Galium (catchweed bedstraw, Galium aparine); assay: Test A postemergence; conditions: Galium, post-emergence, 240 h, 125 g ai/ha, postemergence, visual injury rating after approximately 10 d; read-out: Galium plant response rating (0 to 100 scale, 0 no effect, 100 complete control)
Summary of the method: as §1

[10] = test system: ragweed (common ragweed, Ambrosia elatior); assay: Test A preemergence; conditions: Ambrosia artemisiifolia, pre-emergence, 240 h; for pest or weed control at 125 g/ha: 125 g ai/ha, preemergence, 0 to 100 scale where 0 is no effect and 100 is complete control, read-out: Ragweed plant response rating; for pest or weed control at 500 g/ha: 500 g ai/ha, Preemergence, visual injury vs untreated controls after approximately 10 d, read-out: Ragweed plant response rating (0 to 100 scale where 0 is no effect and 100 is complete control)
Summary of the method: as §1

[11] = test system: barnyardgrass (Echinochloa crus-galli); assay: Test A preemergence; conditions: Echinochloa crus-galli, pre-emergence, 240 h; for pest or weed control at 125 g/ha: 125 g ai/ha, preemergence, 0 to 100 scale where 0 is no effect and 100 is complete control, read-out: Barnyardgrass plant response rating; for pest or weed control at 500 g/ha: 500 g ai/ha, Preemergence, visual injury vs untreated controls after approximately 10 d, read-out: Barnyardgrass plant response rating (0 to 100 scale where 0 is no effect and 100 is complete control)
Summary of the method: as §1

Kochia (Kochia scoparia) [12] = assay: Test A preemergence; conditions: Bassia scoparia, pre-emergence, 240 h; for pest or weed control at 125 g/ha: 125 g ai/ha, preemergence, 0 to 100 scale where 0 is no effect and 100 is complete control, read-out: Kochia plant response rating; for pest or weed control at 500 g/ha: 500 g ai/ha, Preemergence, visual injury vs untreated controls after approximately 10 d, read-out: Kochia plant response rating (0 to 100 scale where 0 is no effect and 100 is complete control)
Summary of the method: as §1

[13] = test system: pigweed (Amaranthus retroflexus); assay: Test A preemergence; conditions: Amaranthus retroflexus, pre-emergence, 240 h; for pest or weed control at 125 g/ha: 125 g ai/ha, preemergence, 0 to 100 scale where 0 is no effect and 100 is complete control, read-out: Pigweed plant response rating; for pest or weed control at 500 g/ha: 500 g ai/ha, Preemergence, visual injury vs untreated controls after approximately 10 d, read-out: Pigweed plant response rating (0 to 100 scale where 0 is no effect and 100 is complete control)
[14] = test system: ryegrass, Italian (Italian ryegrass, Lolium multiflorum); assay: Test A preemergence; conditions: Lolium multiflorum, pre-emergence, 240 h; for pest or weed control at 125 g/ha: 125 g ai/ha, preemergence, 0 to 100 scale where 0 is no effect and 100 is complete control, read-out: Ryegrass, Italian plant response rating; for pest or weed control at 500 g/ha: 500 g ai/ha, Preemergence, visual injury vs untreated controls after approximately 10 d, read-out: Ryegrass, Italian plant response rating (0 to 100 scale where 0 is no effect and 100 is complete control)
Summary of the method: as §1

Work on CN1C[C@H](c2cccc(F)c2)[C@@H](C(=O)Nc2ccccc2S(C)(=O)=O)C1=O [Compound 824] yielded a pest or weed control at 125 g/ha [1] of 20%, a pest or weed control at 125 g/ha [2] of 30% and a pest or weed control at 125 g/ha [3] of 90%. The pest or weed control at 125 g/ha (Kochia (Kochia scoparia) [4]) was 0%, the plant injury at 125 g/ha [5] was 0% and the plant injury at 125 g/ha (corn (Zea mays)) was 0%. The pest or weed control at 125 g/ha [6] was 90%, the pest or weed control at 125 g/ha [7] was 0% and the pest or weed control at 125 g/ha [8] was 30%. The pest or weed control at 125 g/ha [9] was 40%, the pest or weed control at 125 g/ha [10] was 20% and the pest or weed control at 500 g/ha [10] was 50%. It also gave a pest or weed control at 125 g/ha [11] of 90%, a pest or weed control at 500 g/ha [11] of 100% and a pest or weed control at 125 g/ha (Kochia (Kochia scoparia) [12]) of 60%. For the same compound, the pest or weed control at 500 g/ha (Kochia (Kochia scoparia) [12]) was 70%, the pest or weed control at 125 g/ha [13] was 0% and the pest or weed control at 500 g/ha [13] was 40%. For the same compound, the pest or weed control at 125 g/ha [14] was 20% and the pest or weed control at 500 g/ha [14] was 40%.
Work on CCOc1ccc([C@H]2CN(C)C(=O)[C@@H]2C(=O)Nc2cccc(F)c2F)cc1 [Compound 904] yielded a pest or weed control at 125 g/ha [1] of 30%, a pest or weed control at 125 g/ha [2] of 0% and a pest or weed control at 125 g/ha [3] of 80%. For the same compound, the pest or weed control at 125 g/ha (Kochia (Kochia scoparia) [4]) was 30%, the plant injury at 125 g/ha [5] was 0% and the plant injury at 125 g/ha (corn (Zea mays)) was 0%. For the same compound, the pest or weed control at 125 g/ha [6] was 80%, the pest or weed control at 125 g/ha [7] was 0% and the pest or weed control at 125 g/ha [8] was 0%. It also gave a pest or weed control at 125 g/ha [9] of 30%, a pest or weed control at 125 g/ha [10] of 0% and a pest or weed control at 500 g/ha [10] of 0%. It also gave a pest or weed control at 125 g/ha [11] of 90%, a pest or weed control at 500 g/ha [11] of 90% and a pest or weed control at 125 g/ha (Kochia (Kochia scoparia) [12]) of 90%. For the same compound, the pest or weed control at 500 g/ha (Kochia (Kochia scoparia) [12]) was 90%, the pest or weed control at 125 g/ha [13] was 0% and the pest or weed control at 500 g/ha [13] was 50%. It also gave a pest or weed control at 125 g/ha [14] of 0% and a pest or weed control at 500 g/ha [14] of 0%.
